In patent US20050208468A1, “Assays with primary cells” (priority 2003, published 2005):

Experiments:
PPARγ = PPARγ activity assay based on PEPCK expression, coded carriers in a shared fluid volume; format: cell-based, human; conditions: four donor samples in a shared fluid volume; four days; FIG. 12
Excerpt: This differentiation may be visualized readily and scored by staining lipid droplets that accumulate in the cytoplasm of the adipocytes during and/or after their differentiation. Furthermore, this adipocyte differentiation and/or activation of PPARγ may be followed by measuring the expression levels (RNA and/or protein) of PPARγ target genes (direct or indirect targets), such as PEPCK (phosphoenolpyruvate carboxykinsae) and/or FABP4 (fatty acid binding protein 4), among others.
Staining was via indirect immunofluorescence. Cells were counterstained with a nuclear dye (Hoechst) for data normalization, here and in other assays. […] Each sample of primary cells corresponds to pre-adipocytes isolated from visceral tissue (samples starting with the letter “V”) or isolated from subcutaneous tissue (samples starting with the letters “SC”) and were supplied by Cambrex. […] Each sample was connected to a distinct class of coded carriers (having a distinct code) to permit identification of the sample after combining the different classes of carrier and samples in a shared volume. […] Lipid accumulation and PEPCK expression were then measured with the samples still disposed in the same microplate wells. […]

HRPTE cells = assay: cytotoxicity response (death index, live/dead assay) of HRPTE cells; format: cell-based, human; conditions: HRPTE cells in 96-well microplate wells or on coded carriers; various concentrations; FIG. 7
Experimental: This example describes how multiplexed analysis using coded carriers may be used to study the cytotoxicity response of HRPTE cells to staurosporine, in accordance with aspects of the present teachings; see FIG. 7.
Specifically, HRPTE cells are grown directly attached to wells of a standard 96-well microplate, or on coded carriers that optionally may be placed in wells of the microplate. A “death index” (e.g., the fraction of observed cells that are dead) may be used as a measure of cytotoxicity. The death index may be computed using any suitable mechanism, such as a fluorescence-based “live/dead assay.” In an exemplary version of the assay, live cells are labeled green using a membrane-permeant calcein AM, which is cleaved by esterases in live cells to yield cytoplasmic green fluorescence, and dead cells are labeled red using a membrane-impermeant ethidium homodimer-1, which passes through the compromised membranes of dead cells to label nucleic acids with red fluorescence. […] This reduction may be particularly significant in assays on primary cells, because primary cells typically are difficult to obtain and maintain.

[1] = tested on: primary human renal proximal tubule epithelial (HRPTE) cells; assay: proliferative response (S-phase index) of primary HRPTE cells; format: cell-based; conditions: HRPTE cells in 96-well microplate wells or on coded carriers; various concentrations; FIG. 6
Experimental: This example describes how multiplexed analysis using coded carriers may be used to assay the effects of camptothecin on the proliferative response of primary human renal proximal tubule epithelial (HRPTE) cells, in accordance with aspects of the present teachings; see FIG. 6.
Specifically, HRPTE cells are grown directly in wells of a standard 96-well microplate, to three different cell densities (indicated as the stated number of cells), or on coded carriers that optionally may be placed in wells of the microplate. An “S-phase index” (e.g., the fraction of cells in the S-phase of the cell cycle) is used as a measure of cell proliferation. […] This reduction may be particularly significant in assays on primary cells, because primary cells typically are difficult to obtain and maintain.

Question: For `COc1ccc2c(c1)c(CC(=O)O)c(C)n2C(=O)c1ccc(Cl)cc1` [Indomethacin, indomethacin], which “induction of PEPCK expression as a measure of PPARγ activity” value (PPARγ) is on record?
Answer: relatively strong induction

Question: For `CN[C@@H]1C[C@H]2O[C@@](C)([C@@H]1OC)n1c3ccccc3c3c4c(c5c6ccccc6n2c5c31)C(=O)NC4` [staurosporine], which “death index (fraction of dead cells)” value (HRPTE cells) is on record?
Answer: generally increases with increasing staurosporine concentration

Question: Which “S-phase index (measure of cell proliferation)” value [1] does the source give for `CC[C@@]1(O)C(=O)OCc2c1cc1n(c2=O)Cc2cc3ccccc3nc2-1` [camptothecin] here?
Answer: S-phase index generally decreases with increasing camptothecin concentration
